Legend:
Type in all cases: functional
K562 = experiment: Growth inhibition of human K562 cells assessed as cell growth at 1 uM incubated for 48 hrs by sulforhodamine B assay relative to control; settings: K562, 48 h, read-out: Activity
SK-OV-3 = experiment: Growth inhibition of human SKOV3 cells incubated for 48 hrs by sulforhodamine B assay; settings: SK-OV-3, 48 h
IGROV-1 [1] = experiment: Growth inhibition of human IGROV1 cells assessed as cell growth at 0.1 uM incubated for 48 hrs by sulforhodamine B assay relative to control; settings: IGROV-1, 48 h, read-out: Activity
EKVX = experiment: Growth inhibition of human EKVX cells incubated for 48 hrs by sulforhodamine B assay
TK-10 [2] = experiment: Growth inhibition of human TK10 cells assessed as cell growth at 100 uM incubated for 48 hrs by sulforhodamine B assay relative to control; settings: TK-10, 48 h, read-out: Activity
CCRF-CEM [3] = experiment: Growth inhibition of human CCRF-CEM cells assessed as cell growth at 0.01 uM incubated for 48 hrs by sulforhodamine B assay relative to control; settings: read-out: Activity
SW-620 = experiment: Growth inhibition of human SW620 cells assessed as cell growth at 0.1 uM incubated for 48 hrs by sulforhodamine B assay relative to control; settings: SW-620, 48 h, read-out: Activity
SNB-19 = experiment: Growth inhibition of human SNB19 cells assessed as cell growth at 0.1 uM incubated for 48 hrs by sulforhodamine B assay relative to control; settings: SNB-19, 48 h, read-out: Activity
OVCAR-4 [4] = experiment: Growth inhibition of human OVCAR4 cells assessed as cell growth at 100 uM incubated for 48 hrs by sulforhodamine B assay relative to control; settings: OVCAR-4, 48 h, read-out: Activity
Malme-3M [5] = experiment: Growth inhibition of human MALME-3M cells assessed as cell growth at 1 uM incubated for 48 hrs by sulforhodamine B assay relative to control; settings: read-out: Activity
CCRF-CEM [6] = experiment: Growth inhibition of human CCRF-CEM cells assessed as cell growth at 0.1 uM incubated for 48 hrs by sulforhodamine B assay relative to control; settings: read-out: Activity
U-251 = experiment: Growth inhibition of human U251 cells assessed as cell growth at 1 uM incubated for 48 hrs by sulforhodamine B assay relative to control; settings: U-251, 48 h, read-out: Activity
SF-268 = experiment: Growth inhibition of human SF268 cells incubated for 48 hrs by sulforhodamine B assay; settings: SF-268, 48 h
OVCAR-4 [7] = experiment: Growth inhibition of human OVCAR4 cells assessed as cell growth at 0.01 uM incubated for 48 hrs by sulforhodamine B assay relative to control; settings: OVCAR-4, 48 h, read-out: Activity
Hs-578T [8] = experiment: Growth inhibition of human Hs 578T cells assessed as cell growth at 0.01 uM incubated for 48 hrs by sulforhodamine B assay relative to control; settings: read-out: Activity
PC-3 = experiment: Growth inhibition of human PC3 cells assessed as cell growth at 1 uM incubated for 48 hrs by sulforhodamine B assay relative to control; settings: PC-3, 48 h, read-out: Activity
CCRF-CEM [9] = experiment: Growth inhibition of human CCRF-CEM cells assessed as cell growth at 1 uM incubated for 48 hrs by sulforhodamine B assay relative to control; settings: read-out: Activity
MDA-MB-468 = experiment: Growth inhibition of human MDA-MB-468 cells assessed as cell growth at 0.01 uM incubated for 48 hrs by sulforhodamine B assay relative to control; settings: MDA-MB-468, 48 h, read-out: Activity
BT-549 = experiment: Growth inhibition of human BT549 cells assessed as cell growth at 0.01 uM incubated for 48 hrs by sulforhodamine B assay relative to control; settings: BT-549, 48 h, read-out: Activity
UACC-257 = experiment: Growth inhibition of human UACC257 cells assessed as cell growth at 100 uM incubated for 48 hrs by sulforhodamine B assay relative to control; settings: UACC-257, 48 h, read-out: Activity
MDA-MB-231 = experiment: Growth inhibition of human MDA-MB-231 cells assessed as cell growth at 0.01 uM incubated for 48 hrs by sulforhodamine B assay relative to control; settings: MDA-MB-231, 48 h, read-out: Activity
TK-10 [10] = experiment: Growth inhibition of human TK10 cells assessed as cell growth at 0.01 uM incubated for 48 hrs by sulforhodamine B assay relative to control; settings: TK-10, 48 h, read-out: Activity
IGROV-1 [11] = experiment: Growth inhibition of human IGROV1 cells assessed as cell growth at 100 uM incubated for 48 hrs by sulforhodamine B assay relative to control; settings: IGROV-1, 48 h, read-out: Activity
Hs-578T [12] = experiment: Growth inhibition of human Hs 578T cells assessed as cell growth at 1 uM incubated for 48 hrs by sulforhodamine B assay relative to control; settings: read-out: Activity
MCF7 = experiment: Growth inhibition of human MCF7 cells assessed as cell growth at 1 uM incubated for 48 hrs by sulforhodamine B assay relative to control; settings: MCF7, 48 h, read-out: Activity
UACC-62 = experiment: Growth inhibition of human UACC62 cells assessed as cell growth at 100 uM incubated for 48 hrs by sulforhodamine B assay relative to control; settings: UACC-62, 48 h, read-out: Activity
OVCAR-4 [13] = experiment: Growth inhibition of human OVCAR4 cells assessed as cell growth at 0.1 uM incubated for 48 hrs by sulforhodamine B assay relative to control; settings: OVCAR-4, 48 h, read-out: Activity
T47D [14] = experiment: Growth inhibition of human T47D cells incubated for 48 hrs by sulforhodamine B assay
Malme-3M [15] = experiment: Growth inhibition of human MALME-3M cells assessed as cell growth at 100 uM incubated for 48 hrs by sulforhodamine B assay relative to control; settings: read-out: Activity
CAKI-1 = experiment: Growth inhibition of human Caki1 cells assessed as cell growth at 100 uM incubated for 48 hrs by sulforhodamine B assay relative to control; settings: CAKI-1, 48 h, read-out: Activity
SR = experiment: Growth inhibition of human SR cells assessed as cell growth at 1 uM incubated for 48 hrs by sulforhodamine B assay relative to control; settings: read-out: Activity
T47D [16] = experiment: Growth inhibition of human T47D cells assessed as cell growth at 1 uM incubated for 48 hrs by sulforhodamine B assay relative to control; settings: read-out: Activity
HCC 2998 = experiment: Growth inhibition of human HCC2998 cells assessed as cell growth at 100 uM incubated for 48 hrs by sulforhodamine B assay relative to control; settings: HCC 2998, 48 h, read-out: Activity
[17] = read-out: LC50 (the source's name)
[18] = read-out: pLC50 (the source's name) (converted)

c1ccc2c3c([nH]c2c1)C(c1ccc(C2NCCc4c2[nH]c2ccccc42)cc1)NCC3 (racemic) was tested, and the growth at 1 µM (K562) was 52%, the GI50 (SK-OV-3; read-out: GI50) was 1.88 µM and the CC50 (SK-OV-3; [17]) was 9.12 µM. For the same compound, the TGI (SK-OV-3; read-out: TGI) was 4.14 µM, the GI50 (SK-OV-3; read-out: pGI50 (converted)) was 1.86 µM and the CC50 (SK-OV-3; [18]) was 9.12 µM. It also gave a TGI (SK-OV-3; read-out: pTGI (converted)) of 4.17 µM, a growth at 0.1 µM (IGROV-1 [1]) of 92% and a GI50 (EKVX; read-out: GI50) of 1.42 µM. For the same compound, the CC50 (EKVX; [17]) was 8.12 µM, the TGI (EKVX; read-out: TGI) was 3.39 µM and the GI50 (EKVX; read-out: pGI50 (converted)) was 2.24 µM. For the same compound, the CC50 (EKVX; [18]) was 8.13 µM, the TGI (EKVX; read-out: pTGI (converted)) was 3.39 µM and the growth at 100 µM (TK-10 [2]) was -96%. For the same compound, the growth at 0.01 µM (CCRF-CEM [3]) was 98%, the growth at 0.1 µM (SW-620) was 100% and the growth at 0.1 µM (SNB-19) was 99%. It also gave a growth at 100 µM (OVCAR-4 [4]) of 93%, a growth at 1 µM (Malme-3M [5]) of 82% and a growth at 0.1 µM (CCRF-CEM [6]) of 104%. It also gave a growth at 1 µM (U-251) of 4%, a GI50 (SF-268; read-out: GI50) of 1.12 µM and a CC50 (SF-268; [17]) of 5.89 µM. For the same compound, the TGI (SF-268; read-out: TGI) was 2.57 µM, the GI50 (SF-268; read-out: pGI50 (converted)) was 1.12 µM and the CC50 (SF-268; [18]) was 5.89 µM. For the same compound, the TGI (SF-268; read-out: pTGI (converted)) was 2.57 µM, the growth at 0.01 µM (OVCAR-4 [7]) was 88% and the growth at 0.01 µM (Hs-578T [8]) was 93%. It also gave a growth at 1 µM (PC-3) of 66%, a growth at 1 µM (CCRF-CEM [9]) of 21% and a growth at 0.01 µM (MDA-MB-468) of 95%. The growth at 0.01 µM (BT-549) was 87%, the growth at 100 µM (UACC-257) was 94% and the growth at 0.01 µM (MDA-MB-231) was 97%. The growth at 0.01 µM (TK-10 [10]) was 97%, the growth at 100 µM (IGROV-1 [11]) was 89% and the growth at 1 µM (Hs-578T [12]) was 68%. It also gave a growth at 1 µM (MCF7) of 22%, a growth at 100 µM (UACC-62) of 93% and a growth at 0.1 µM (OVCAR-4 [13]) of 91%. It also gave a GI50 (T47D [14]; read-out: GI50) of 1.31 µM, a CC50 (T47D [14]; [17]) of 7.13 µM and a TGI (T47D [14]; read-out: TGI) of 3.06 µM. It also gave a GI50 (T47D [14]; read-out: pGI50 (converted)) of 1.32 µM, a CC50 (T47D [14]; [18]) of 7.08 µM and a TGI (T47D [14]; read-out: pTGI (converted)) of 3.09 µM. It also gave a growth at 100 µM (Malme-3M [15]) of 83%, a growth at 100 µM (CAKI-1) of -98% and a growth at 1 µM (SR) of 36%. For the same compound, the growth at 1 µM (T47D [16]) was 66% and the growth at 100 µM (HCC 2998) was 84%.
For c1ccc2[nH]c(-c3ccc(-c4nccc5c4[nH]c4ccccc45)cc3)nc2c1, the growth at 1 µM (K562) was 100%, the CC50 (SK-OV-3; [17]) was 4.66 µM and the GI50 (SK-OV-3; read-out: pGI50 (converted)) was 4.37 µM. For the same compound, the CC50 (SK-OV-3; [18]) was 46.8 µM, the TGI (SK-OV-3; read-out: pTGI (converted)) was 15.8 µM and the growth at 0.1 µM (IGROV-1 [1]) was 99%. For the same compound, the GI50 (EKVX; read-out: GI50) was 3.45 µM, the CC50 (EKVX; [17]) was greater than 1 µM and the GI50 (EKVX; read-out: pGI50 (converted)) was 3.47 µM. For the same compound, the CC50 (EKVX; [18]) was greater than 100 µM, the TGI (EKVX; read-out: pTGI (converted)) was 17 µM and the growth at 100 µM (TK-10 [2]) was 85%. It also gave a growth at 0.01 µM (CCRF-CEM [3]) of 102%, a growth at 0.1 µM (SW-620) of 103% and a growth at 0.1 µM (SNB-19) of 96%. For the same compound, the growth at 100 µM (OVCAR-4 [4]) was 42%, the growth at 1 µM (Malme-3M [5]) was 96% and the growth at 0.1 µM (CCRF-CEM [6]) was 102%. It also gave a growth at 1 µM (U-251) of 98%, a GI50 (SF-268; read-out: GI50) of 2.89 µM and a CC50 (SF-268; [17]) of 8.98 µM. For the same compound, the GI50 (SF-268; read-out: pGI50 (converted)) was 2.88 µM, the CC50 (SF-268; [18]) was 89.1 µM and the TGI (SF-268; read-out: pTGI (converted)) was 10.2 µM. For the same compound, the growth at 0.01 µM (OVCAR-4 [7]) was 90%, the growth at 0.01 µM (Hs-578T [8]) was 99% and the growth at 1 µM (PC-3) was 95%. It also gave a growth at 1 µM (CCRF-CEM [9]) of 103%, a growth at 0.01 µM (MDA-MB-468) of 90% and a growth at 0.01 µM (BT-549) of 91%. It also gave a growth at 100 µM (UACC-257) of 81%, a growth at 0.01 µM (MDA-MB-231) of 90% and a growth at 0.01 µM (TK-10 [10]) of 96%. For the same compound, the growth at 100 µM (IGROV-1 [11]) was 47%, the growth at 1 µM (Hs-578T [12]) was 91% and the growth at 1 µM (MCF7) was 91%. It also gave a growth at 100 µM (UACC-62) of 57%, a growth at 0.1 µM (OVCAR-4 [13]) of 98% and a GI50 (T47D [14]; read-out: GI50) of 2.02 µM. It also gave a CC50 (T47D [14]; [17]) of 8.34 µM, a TGI (T47D [14]; read-out: TGI) of 6.19 µM and a GI50 (T47D [14]; read-out: pGI50 (converted)) of 2.04 µM. The CC50 (T47D [14]; [18]) was 83.2 µM, the TGI (T47D [14]; read-out: pTGI (converted)) was 6.17 µM and the growth at 100 µM (Malme-3M [15]) was 72%. For the same compound, the growth at 100 µM (CAKI-1) was 76%, the growth at 1 µM (SR) was 88% and the growth at 1 µM (T47D [16]) was 82%. The growth at 100 µM (HCC 2998) was 76%.

Reference: ChEMBL document CHEMBL4004838, “Design and synthesis of novel phenyl -1, 4-beta-carboline-hybrid molecules as potential anticancer agents” (Eur J Med Chem, 2017)
